According to patent US20210340120A1, “PESTICIDALLY ACTIVE AZOLE-AMIDE COMPOUNDS” (SYNGENTA PARTICIPATIONS AG, priority 2018, published 2021):

Key:
Type in all cases: in vivo
Spodoptera littoralis = experiment: Example B6: Spodoptera littoralis (Egyptian cotton leaf worm), cotton leaf discs, L1 larvae; details: foliar, 72 h, application rate 200 ppm, 3 days after infestation, read-out: control in at least one of the categories (mortality, anti-feedant effect, or growth inhibition)
Method: Cotton leaf discs were placed onto agar in 24-well microtiter plates and sprayed with aqueous test solutions prepared from 10′000 ppm DMSO stock solutions. After drying the leaf discs were infested with five L1 larvae. The samples were assessed for mortality, anti-feeding effect, and growth inhibition in comparison to untreated samples 3 days after infestation. Control of Spodoptera littoralis by a test sample is given when at least one of the categories mortality, anti-feedant effect, and growth inhibition is higher than the untreated sample.

Plutella xylostella = experiment: Example B3: Plutella xylostella (diamond back moth), artificial diet, eggs; details: 192 h, application rate 200 ppm, 8 days after infestation, read-out: control in at least one of the two categories (mortality or growth inhibition)
Method: 24-well microtiter plates with artificial diet were treated with aqueous test solutions prepared from 10′000 ppm DMSO stock solutions by pipetting. After drying, Plutella eggs were pipetted through a plastic stencil onto a gel blotting paper and the plate was closed with it. The samples were assessed for mortality and growth inhibition in comparison to untreated samples 8 days after infestation. The following compounds gave an effect of at least 80% control in at least one of the two categories (mortality or growth inhibition) at an application rate of 200 ppm: P1, P2, P3, P4, P5, P6

Diabrotica balteata = experiment: Example B1: Diabrotica balteata (corn root worm), maize sprouts sprayed, L2 larvae; details: 96 h, application rate 200 ppm, 4 days after infestation, read-out: control in at least one of the two categories (mortality or growth inhibition)
Method: Maize sprouts placed onto an agar layer in 24-well microtiter plates were treated with aqueous test solutions prepared from 10′000 ppm DMSO stock solutions by spraying. After drying, the plates were infested with L2 larvae (6 to 10 per well). The samples were assessed for mortality and growth inhibition in comparison to untreated samples 4 days after infestation.

Myzus persicae [1] = experiment: Example B4: Myzus persicae (green peach aphid) feeding/contact activity, sunflower leaf discs; details: foliar, 144 h, application rate 200 ppm, 6 days after infestation, mixed ages
Method: (§1) Sunflower leaf discs were placed onto agar in a 24-well microtiter plate and sprayed with aqueous test solutions prepared from 10′000 ppm DMSO stock solutions. After drying, the leaf discs were infested with an aphid population of mixed ages. The samples were assessed for mortality 6 days after infestation.

Euschistus heros = experiment: Example B2: Euschistus heros (neotropical brown stink bug), soybean leaves sprayed, N2 nymphs; details: 120 h, application rate 200 ppm, 5 days after infestation, read-out: control in at least one of the two categories (mortality or growth inhibition)
Method: Soybean leaves on agar in 24-well microtiter plates were sprayed with aqueous test solutions prepared from 10′000 ppm DMSO stock solutions. After drying the leaves were infested with N2 nymphs. The samples were assessed for mortality and growth inhibition in comparison to untreated samples 5 days after infestation.

Tetranychus urticae = experiment: Example B7: Tetranychus urticae (two-spotted spider mite) feeding/contact activity, bean leaf discs; details: foliar, 192 h
Method: Bean leaf discs on agar in 24-well microtiter plates were sprayed with aqueous test solutions prepared from 10′000 ppm DMSO stock solutions. After drying the leaf discs were infested with a mite population of mixed ages. The samples were assessed for mortality on mixed population (mobile stages) 8 days after infestation.

Chilo suppressalis = experiment: Example B9: Chilo suppressalis (striped rice stemborer), artificial diet, L2 larvae; details: 144 h, application rate 200 ppm, 6 days after infestation, read-out: control in at least one of the three categories (mortality, anti-feedant effect or growth inhibition)
Method: 24-well microtiter plates with artificial diet were treated with aqueous test solutions prepared from 10′000 ppm DMSO stock solutions by pipetting. After drying, the plates were infested with L2 larvae (6-8 per well). The samples were assessed for mortality, anti-feeding effect, and growth inhibition in comparison to untreated samples 6 days after infestation. Control of Chilo suppressalis by a test sample is given when at least one of the categories mortality, anti-feedant effect, and growth inhibition is higher than the untreated sample.

Myzus persicae [2] = experiment: Example B5: Myzus persicae (green peach aphid) intrinsic activity, sucrose solution, 24-well; details: 120 h, test rate 12 ppm, 5 days after infestation
Method: Test compounds prepared from 10′000 ppm DMSO stock solutions were applied by pipette into 24-well microtiter plates and mixed with sucrose solution. The plates were closed with a stretched Parafilm. A plastic stencil with 24 holes was placed onto the plate and infested pea seedlings were placed directly on the Parafilm. The infested plate was closed with a gel blotting paper and another plastic stencil and then turned upside down. The samples were assessed for mortality 5 days after infestation.

Thrips tabaci = experiment: Example B8: Thrips tabaci (onion thrips) feeding/contact activity, sunflower leaf discs; details: foliar, 144 h, application rate 200 ppm, 6 days after infestation, mixed ages
Method: as §1, with “on” for “onto”, “in” for “in a”, “plates” for “plate”, “drying” for “drying,”, “a thrips” for “an aphid”

Myzus persicae [3] = experiment: Example B10: Myzus persicae (green peach aphid), sucrose solution, 96-well; details: 120 h, application rate 50 ppm, 5 days after infestation
Method: Test compounds prepared from 10′000 ppm DMSO stock solutions were applied by a liquid handling robot into 96-well microtiter plates and mixed with a sucrose solution. Parafilm was stretched over the 96-well microtiter plate and a plastic stencil with 96 holes was placed onto the plate. Aphids were sieved into the wells directly onto the Parafilm. The infested plates were closed with a gel blotting card and a second plastic stencil and then turned upside down. The samples were assessed for mortality 5 days after infestation.

CC(c1ncnn1-c1ncccc1F)N(CC1CC1)C(=O)c1cc(C(F)(F)F)cc(C(F)(F)F)c1 (stereo not shown) [Compound P2, N-(cyclopropylmethyl)-N-[1-[2-(3-fluoro-2-pyridyl)-1,2,4-triazol-3-yl]ethyl]-3,5-bis(trifluoromethyl)benzamide]
≥ 80%: percent control (mortality, anti-feedant effect or growth inhibition) at 200 ppm (Spodoptera littoralis) | percent control (mortality or growth inhibition) at 200 ppm (Plutella xylostella) | percent control (mortality or growth inhibition) at 200 ppm (Diabrotica balteata)

CC(c1ncnn1-c1ccc(F)cn1)N(CC1CC1)C(=O)c1cc(C(F)(F)F)cc(C(F)(F)F)c1 (stereo not shown) [Compound P5, N-(cyclopropylmethyl)-N-[1-[2-(5-fluoro-2-pyridyl)-1,2,4-triazol-3-yl]ethyl]-3,5-bis(trifluoromethyl)benzamide]
≥ 80%: percent control (mortality, anti-feedant effect or growth inhibition) at 200 ppm (Spodoptera littoralis) | percent control (mortality or growth inhibition) at 200 ppm (Plutella xylostella) | mortality at 200 ppm (Myzus persicae [1]) | percent control (mortality or growth inhibition) at 200 ppm (Euschistus heros) | mortality at 200 ppm (Tetranychus urticae) | percent control (mortality or growth inhibition) at 200 ppm (Diabrotica balteata)

CC(NC(=O)c1cc(C(F)(F)F)cc(C(F)(F)F)c1)c1ncnn1-c1cccc(F)n1 (stereo not shown) [Compound P6, N-[1-[2-(6-fluoro-2-pyridyl)-1,2,4-triazol-3-yl]ethyl]-3,5-bis(trifluoromethyl)benzamide]
≥ 80%: percent control (mortality, anti-feedant effect or growth inhibition) at 200 ppm (Chilo suppressalis) | percent control (mortality or growth inhibition) at 200 ppm (Plutella xylostella)

CC(NC(=O)c1cc(C(F)(F)F)cc(C(F)(F)F)c1)c1ncnn1-c1ccc(F)cn1 (stereo not shown) [Compound P3, N-[1-[2-(5-fluoro-2-pyridyl)-1,2,4-triazol-3-yl]ethyl]-3,5-bis(trifluoromethyl)benzamide]
≥ 80%: percent control (mortality, anti-feedant effect or growth inhibition) at 200 ppm (Spodoptera littoralis) | percent control (mortality or growth inhibition) at 200 ppm (Plutella xylostella) | percent control (mortality or growth inhibition) at 200 ppm (Euschistus heros) | mortality at 12 ppm (Myzus persicae [2]) | mortality at 200 ppm (Tetranychus urticae) | percent control (mortality or growth inhibition) at 200 ppm (Diabrotica balteata)

CC(NC(=O)c1cc(C(F)(F)F)cc(C(F)(F)F)c1)c1ncnn1-c1ncccc1F (stereo not shown) [Compound P4, N-[1-[2-(3-fluoro-2-pyridyl)-1,2,4-triazol-3-yl]ethyl]-3,5-bis(trifluoromethyl)benzamide]
≥ 80%: mortality at 200 ppm (Thrips tabaci) | percent control (mortality, anti-feedant effect or growth inhibition) at 200 ppm (Spodoptera littoralis) | mortality at 50 ppm (Myzus persicae [3]) | percent control (mortality or growth inhibition) at 200 ppm (Plutella xylostella) | percent control (mortality or growth inhibition) at 200 ppm (Euschistus heros) | percent control (mortality or growth inhibition) at 200 ppm (Diabrotica balteata)

CC(NC(=O)c1cc(C(F)(F)F)cc(C(F)(F)F)c1)c1ncnn1-c1ccc(Cl)cn1 (stereo not shown) [Compound P1, N-[1-[2-(5-chloro-2-pyridyl)-1,2,4-triazol-3-yl]ethyl]-3,5-bis(trifluoromethyl)benzamide]
≥ 80%: percent control (mortality, anti-feedant effect or growth inhibition) at 200 ppm (Chilo suppressalis) | percent control (mortality, anti-feedant effect or growth inhibition) at 200 ppm (Spodoptera littoralis) | percent control (mortality or growth inhibition) at 200 ppm (Plutella xylostella) | percent control (mortality or growth inhibition) at 200 ppm (Euschistus heros) | percent control (mortality or growth inhibition) at 200 ppm (Diabrotica balteata)
